Assay results taken from patent publication US8703768B2, “Nitrogen containing heteroaryl compounds” (Hoffmann-La Roche Inc., priority 2010, dated 2014).

Biological target: human PDE10A (Homo sapiens (Human), UniProt Q9Y233)
Test: human PDE10A full length Scintillation Proximity Assay (SPA)
Format: biochemical
Details: 50 nM cGMP and 50 nM [3H]-cGMP, 20 minutes at room temperature; read-out: PDE10A inhibition IC50
Procedure, shortened: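 Full-length enzyme incubated with compounds; reaction started with cGMP plus [^3H]-cGMP substrate and run 20 min at room temperature. Stopped with yttrium silicate SPA beads in 18 mM zinc sulphate, 1 h shaking, then scintillation counting; background from enzyme-free wells.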

human PDE10A, sequence (Q9Y233 other isoform, or with tags, fused parts or gaps): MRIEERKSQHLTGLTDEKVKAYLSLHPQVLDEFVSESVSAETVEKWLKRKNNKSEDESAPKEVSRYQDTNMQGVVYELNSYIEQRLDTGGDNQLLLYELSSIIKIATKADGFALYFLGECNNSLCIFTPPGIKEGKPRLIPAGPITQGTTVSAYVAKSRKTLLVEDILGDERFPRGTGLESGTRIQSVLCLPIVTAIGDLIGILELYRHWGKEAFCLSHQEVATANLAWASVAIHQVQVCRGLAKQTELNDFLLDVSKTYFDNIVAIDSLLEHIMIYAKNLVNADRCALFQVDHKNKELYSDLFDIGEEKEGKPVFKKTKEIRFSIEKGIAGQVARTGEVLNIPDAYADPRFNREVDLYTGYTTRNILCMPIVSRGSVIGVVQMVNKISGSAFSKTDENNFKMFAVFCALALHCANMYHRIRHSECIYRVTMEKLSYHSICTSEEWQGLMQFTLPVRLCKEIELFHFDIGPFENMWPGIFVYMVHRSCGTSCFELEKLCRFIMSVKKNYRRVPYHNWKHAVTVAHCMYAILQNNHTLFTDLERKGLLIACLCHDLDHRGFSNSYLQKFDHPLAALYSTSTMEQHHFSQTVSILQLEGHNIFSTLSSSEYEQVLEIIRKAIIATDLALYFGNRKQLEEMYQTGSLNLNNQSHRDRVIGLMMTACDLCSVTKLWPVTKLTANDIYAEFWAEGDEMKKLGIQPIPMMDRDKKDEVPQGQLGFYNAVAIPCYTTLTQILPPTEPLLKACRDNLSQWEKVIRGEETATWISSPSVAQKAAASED

SMILES | IC50
CCn1ncc(NC(=O)c2nc(C3CC3)cnc2Nc2cncnc2)c1C(=O)NCC(C)C [Example 202, 6-Cyclopropyl-3-(pyrimidin-5-ylamino)-pyrazine-2-carboxylic acid (1-ethyl-5-isobutylcarbamoyl-1H-pyrazol-4-yl)-amide] | 3.8 nM
CCN(C)C(=O)c1c(NC(=O)c2nc(C3CC3)cnc2Nc2cncnc2)cnn1C [Example 203, 6-Cyclopropyl-3-(pyrimidin-5-ylamino)-pyrazine-2-carboxylic acid [5-(ethyl-methyl-carbamoyl)-1-methyl-1H-pyrazol-4-yl]-amide] | 33.8 nM
CCN(C)C(=O)c1ncncc1NC(=O)c1nc(C2CC2)cnc1Nc1cncnc1 [Example 204, 5-{[6-Cyclopropyl-3-(pyrimidin-5-ylamino)-pyrazine-2-carbonyl]-amino}-pyrimidine-4-carboxylic acid ethyl-methyl-amide] | 52.5 nM
O=C(Nc1cncnc1C(=O)N1CCC1)c1nc(C2CC2)cnc1Nc1cncnc1 [Example 211, 6-Cyclopropyl-3-(pyrimidin-5-ylamino)-pyrazine-2-carboxylic acid [4-(azetidine-1-carbonyl)-pyrimidin-5-yl]-amide] | 2650 nM
O=C(Nc1cncnc1C(=O)N1CCCCC1)c1nc(C2CC2)cnc1Nc1cncnc1 [Example 212, 6-Cyclopropyl-3-(pyrimidin-5-ylamino)-pyrazine-2-carboxylic acid [4-(piperidine-1-carbonyl)-pyrimidin-5-yl]-amide] | 81.2 nM
O=C(Nc1cncnc1C(=O)N1CCCC1)c1nc(C2CC2)cnc1Nc1cncnc1 [Example 219, 6-Cyclopropyl-3-(pyrimidin-5-ylamino)-pyrazine-2-carboxylic acid [4-(pyrrolidine-1-carbonyl)-pyrimidin-5-yl]-amide] | 52.3 nM
CCCN(CCC)C(=O)c1c(NC(=O)c2nc(C3CC3)cnc2Nc2cncnc2)cnn1C [Example 222, 6-Cyclopropyl-3-(pyrimidin-5-ylamino)-pyrazine-2-carboxylic acid (5-dipropylcarbamoyl-1-methyl-1H-pyrazol-4-yl)-amide] | 42.5 nM
CCCCN(C)C(=O)c1c(NC(=O)c2nc(C3CC3)cnc2Nc2cncnc2)cnn1C [Example 223, 6-Cyclopropyl-3-(pyrimidin-5-ylamino)-pyrazine-2-carboxylic acid [5-(butyl-methyl-carbamoyl)-1-methyl-1H-pyrazol-4-yl]-amide] | 18.4 nM
CN(CCO)C(=O)c1c(NC(=O)c2nc(C3CC3)cnc2Nc2cncnc2)cnn1C [Example 226, 6-Cyclopropyl-3-(pyrimidin-5-ylamino)-pyrazine-2-carboxylic acid [5-[(2-hydroxy-ethyl)-methyl-carbamoyl]-1-methyl-1H-pyrazol-4-yl]-amide] | 54.3 nM
CC(C)N(C)C(=O)c1c(NC(=O)c2nc(C3CC3)cnc2Nc2cncnc2)cnn1C [Example 227, 6-Cyclopropyl-3-(pyrimidin-5-ylamino)-pyrazine-2-carboxylic acid [5-(isopropyl-methyl-carbamoyl)-1-methyl-1H-pyrazol-4-yl]-amide] | 64.1 nM
CCN(CC)C(=O)c1c(NC(=O)c2nc(C3CC3)cnc2Nc2cncnc2)cnn1C [Example 228, 6-Cyclopropyl-3-(pyrimidin-5-ylamino)-pyrazine-2-carboxylic acid (5-diethylcarbamoyl-1-methyl-1H-pyrazol-4-yl)-amide] | 38 nM
CCCN(C)C(=O)c1c(NC(=O)c2nc(C3CC3)cnc2Nc2cncnc2)cnn1C [Example 229, 6-Cyclopropyl-3-(pyrimidin-5-ylamino)-pyrazine-2-carboxylic acid [1-methyl-5-(methyl-propyl-carbamoyl)-1H-pyrazol-4-yl]-amide] | 12.6 nM
CCN(CCO)C(=O)c1c(NC(=O)c2nc(C3CC3)cnc2Nc2cncnc2)cnn1C [Example 230, 6-Cyclopropyl-3-(pyrimidin-5-ylamino)-pyrazine-2-carboxylic acid {5-[ethyl-(2-hydroxy-ethyl)-carbamoyl]-1-methyl-1H-pyrazol-4-yl}-amide] | 118 nM
CN(C(=O)c1c(NC(=O)c2nc(C3CC3)cnc2Nc2cncnc2)cnn1C)C1CCOCC1 [Example 231, 6-Cyclopropyl-3-(pyrimidin-5-ylamino)-pyrazine-2-carboxylic acid {1-methyl-5-[methyl-(tetrahydro-pyran-4-yl)-carbamoyl]-1H-pyrazol-4-yl}-amide] | 41.7 nM
Cn1ncc(NC(=O)c2nc(C3CC3)cnc2Nc2cncnc2)c1C(=O)NCC1CCCO1 (centres unmarked) [Example 232, 6-Cyclopropyl-3-(pyrimidin-5-ylamino)-pyrazine-2-carboxylic acid {1-methyl-5-[(tetrahydro-furan-2-ylmethyl)-carbamoyl]-1H-pyrazol-4-yl}-amide] | 4 nM
CCn1ncc(NC(=O)c2nc(C3CC3)cnc2Nc2cncnc2)c1C(=O)NCC1CCCO1 (centres unmarked) [Example 233, 6-Cyclopropyl-3-(pyrimidin-5-ylamino)-pyrazine-2-carboxylic acid {1-ethyl-5-[(tetrahydro-furan-2-ylmethyl)-carbamoyl]-1H-pyrazol-4-yl}-amide] | 24.9 nM
Cn1ncc(NC(=O)c2nc(C3CC3)cnc2Nc2cccnc2)c1C(=O)N1CCC1 [Example 234, 6-Cyclopropyl-3-(pyridin-3-ylamino)-pyrazine-2-carboxylic acid [5-(azetidine-1-carbonyl)-1-methyl-1H-pyrazol-4-yl]-amide] | 77.3 nM
CC1CCCCN1C(=O)c1c(NC(=O)c2nc(C3CC3)cnc2Nc2cncnc2)cnn1C (centres unmarked) [Example 235, 6-Cyclopropyl-3-(pyrimidin-5-ylamino)-pyrazine-2-carboxylic acid [1-methyl-5-(2-methyl-piperidine-1-carbonyl)-1H-pyrazol-4-yl]-amide] | 34 nM
Cn1ncc(NC(=O)c2nc(C3CC3)cnc2Nc2cncnc2)c1C(=O)NC1CCN(C(=O)OC(C)(C)C)C1 (centres unmarked) [Example 236, 3-[(4-{[6-Cyclopropyl-3-(pyrimidin-5-ylamino)-pyrazine-2-carbonyl]-amino}-2-methyl-2H-pyrazole-3-carbonyl)-amino]-pyrrolidine-1-carboxylic acid tert-butyl ester] | 6.8 nM

Further lines, results first:

IC50 | SMILES
90.1 nM | CN(C)C(=O)c1ncncc1NC(=O)c1nc(C2CC2)cnc1Nc1cncnc1 [Example 205, 5-{[6-Cyclopropyl-3-(pyrimidin-5-ylamino)-pyrazine-2-carbonyl]-amino}-pyrimidine-4-carboxylic acid dimethylamide]
12.2 nM | COc1cccc(NC(=O)c2nc(C3CC3)cnc2Nc2cncnc2)c1C(=O)N(C)C [Example 206, 6-Cyclopropyl-3-(pyrimidin-5-ylamino)-pyrazine-2-carboxylic acid (2-dimethylcarbamoyl-3-methoxy-phenyl)-amide]
1.1 nM | CC(C)c1ccc(NC(=O)c2nc(C3CC3)cnc2Nc2cncnc2)c(C(=O)NCC(C)(C)O)c1 [Example 207, 6-Cyclopropyl-3-(pyrimidin-5-ylamino)-pyrazine-2-carboxylic acid [2-(2-hydroxy-2-methyl-propylcarbamoyl)-4-isopropyl-phenyl]-amide]
1.3 nM | CNC(=O)c1cc(C(C)C)ccc1NC(=O)c1nc(C2CC2)cnc1Nc1cncnc1 [Example 208, 6-Cyclopropyl-3-(pyrimidin-5-ylamino)-pyrazine-2-carboxylic acid (4-isopropyl-2-methylcarbamoyl-phenyl)-amide]
3.7 nM | CNC(=O)c1nc(COC)ccc1NC(=O)c1nc(C2CC2)cnc1Nc1cncnc1 [Example 209, 6-Cyclopropyl-3-(pyrimidin-5-ylamino)-pyrazine-2-carboxylic acid (6-methoxymethyl-2-methylcarbamoyl-pyridin-3-yl)-amide]
1 nM | CNC(=O)c1cc(OCCOC)ccc1NC(=O)c1nc(C2CC2)cnc1Nc1cncnc1 [Example 214, 6-Cyclopropyl-3-(pyrimidin-5-ylamino)-pyrazine-2-carboxylic acid [4-(2-methoxy-ethoxy)-2-methylcarbamoyl-phenyl]-amide]
0.5 nM | CC(C)(O)CNC(=O)c1cc(OCCO)ccc1NC(=O)c1nc(C2CC2)cnc1Nc1cncnc1 [Example 215, 6-Cyclopropyl-3-(pyrimidin-5-ylamino)-pyrazine-2-carboxylic acid [4-(2-hydroxy-ethoxy)-2-(2-hydroxy-2-methyl-propylcarbamoyl)-phenyl]-amide]
0.8 nM | CNC(=O)c1cc(OCCO)ccc1NC(=O)c1nc(C2CC2)cnc1Nc1cncnc1 [Example 216, 6-Cyclopropyl-3-(pyrimidin-5-ylamino)-pyrazine-2-carboxylic acid [4-(2-hydroxy-ethoxy)-2-methylcarbamoyl-phenyl]-amide]
5.2 nM | CNC(=O)c1ncncc1NC(=O)c1nc(C2CC2)cnc1Nc1cncnc1 [Example 218, 5-{[6-Cyclopropyl-3-(pyrimidin-5-ylamino)-pyrazine-2-carbonyl]-amino}-pyrimidine-4-carboxylic acid methylamide]
2.3 nM | CCNC(=O)c1ncccc1NC(=O)c1nc(C2CC2)cnc1Nc1cncnc1 [Example 220, 6-Cyclopropyl-3-(pyrimidin-5-ylamino)-pyrazine-2-carboxylic acid (2-ethylcarbamoyl-pyridin-3-yl)-amide]
4.9 nM | CC(C)NC(=O)c1ncccc1NC(=O)c1nc(C2CC2)cnc1Nc1cncnc1 [Example 221, 6-Cyclopropyl-3-(pyrimidin-5-ylamino)-pyrazine-2-carboxylic acid (2-isopropylcarbamoyl-pyridin-3-yl)-amide]
18.1 nM | CNC(=O)c1c(C)cccc1NC(=O)c1nc(C2CC2)cnc1Nc1cncnc1 [Example 224, 6-Cyclopropyl-3-(pyrimidin-5-ylamino)-pyrazine-2-carboxylic acid (3-methyl-2-methylcarbamoyl-phenyl)-amide]
0.5 nM | CNC(=O)c1cc(OC)ccc1NC(=O)c1nc(C2CC2)cnc1Nc1cncnc1 [Example 225, 6-Cyclopropyl-3-(pyrimidin-5-ylamino)-pyrazine-2-carboxylic acid (4-methoxy-2-methylcarbamoyl-phenyl)-amide]
